Values after ≈ are worked out from the molar mass of the structure shown. Starred links: 1 amine or outer side, 2 acyl side, 3 side chain; linkers in the order of their positions; H or OH if unused. Positions of bridges follow the written chain, without caps; N, C: chain ends. Non-standard residues stand in square brackets, D forms with d. Residues, ends and D or L forms follow the SMILES beside them. Chains are numbered I, II in the order given. No end group written: not given here. εLys = N[C@@H](CCCCN[*:1])C(=O)[*:2]
Legend:
in vitro = conditions: for remaining at 0.25 h, 200 μM / remaining at 0.5 h, 200 μM / remaining at 1 h, 200 μM / remaining at 2 h, 200 μM / remaining at 4 h, 200 μM: human, blood plasma (20% v/v), pH 7.4; for percentage intact peptide: 20% (v/v) human plasma, 37 °C, RP-HPLC C18, 215 nm peak area
Experimental: The stability of the peptides was assessed by incubating them in blood plasma (20% v/v) rich in proteases thrombin and plasmin for different time periods at 37 °C.
The stability of peptides in human blood plasma was measured using a literature procedure.[13],[53] Plasma was separated from red blood cells over centrifugation, frozen, and stored at −80 °C until use. Briefly, peptides were prepared as a 1 mM solution in phosphate buffered saline (pH 7.4). 20 μL of the peptide solution was diluted in 80 μL of blood plasma (20% v/v). The solution was incubated at 37 °C for different time points, and 100 μL of a mixture containing 80% acetonitrile/10% methanol/10% water was added to stop further degradation of the peptides. A cloudy solution was produced upon the addition of the stopping solution, and the sample was cooled to 4 °C for 1 h and then centrifuged at 10 000 rpm for 10 min to remove the plasma proteins as precipitate. The supernatant (50 μL) was injected onto a reversed-phase HPLC (C18 reverse phase, Bio-Rad analytical column, 250 × 4 mm, 300 Å pore size, 7 μm particle size). The column was eluted in 40 min using a linear gradient of 10–90% acetonitrile in water containing 0.1% trifluoroacetic acid (v/v) at a flow rate of 0.6 mL/min, and the absorbance was detected at 215 nm. The percentage of remaining peptide was determined by the decrease in chromatographic peak area.

[1] = test system: human monocytic (THP-1) cells; format: cell-based; conditions: 100 µM
Experimental: Peptide-induced cytotoxicity was assessed against murine macrophage (RAW 264.7) cells and human monocytic (THP-1) cells using the benzenesulfonic acid hydrate and N-methyl dibenzopyrazine methyl sulfate (XTT) dye reduction assay. […] This may in part be due to low hydrophobicity (Table 1), leading to less bacterial membrane alteration.
Figure 3 Cytotoxicity of peptides (1.56–100 μM) on human monocytic (THP-1) cells. Cell viability was analyzed and quantified by measuring the absorption at 450 nm. The data is presented as mean percent viability. All data represent mean ± SD from three independent experiments. One-way analysis of variance was used to analyze the data.
The cytotoxicity of the peptides toward the murine macrophage cells (RAW 264.7) and human monocytic (THP-1) cells was assayed using the colorimetric 2,3-bis(2-methoxy-4-nitro-5-sulfophenyl)-2H-tetrazolium-5-carboxanilide (XTT) method. […] After incubation, the cell viabilities were assessed by the XTT reaction solution (100 μL), and benzenesulfonic acid hydrate and N-methyl dibenzopyrazine methyl sulfate (mixed in a 50:1 ratio) were added for an additional 4 h incubation at 37 °C. The absorbance at 450 nm was then measured using a microplate autoreader (SynersyMx, Biotek). The percentage of cell viability was calculated relative to the 100% survival control after the blank read’s deduction.

Staphylococcus aureus = format: cell-based; conditions: 24 h
Experimental: (§1) A panel of four bacteria, including two Gram-negative (P. aeruginosa, E. coli) and two Gram-positive (S. aureus, B. subtilis) bacterial strains, was used to test the antibacterial properties of the peptides. The bacteria P. aeruginosa, E. coli, and S. aureus belong to the ESKAPE group of pathogens, which are potential multidrug resistant strains that are majorly involved in various nosocomial infections.
(§2) The antimicrobial activity of the peptides was determined against two Gram-negative (Pseudomonas aeruginosa PA01 and the Escherichia coli K12 parental type) and two Gram-positive (Staphylococcus aureus and Bacillus subtilis) bacteria. The minimal inhibitory concentration (MIC) assays were performed as reported by Wiegand et al.,[50] using the broth microdilution method in 96-well round-bottom microplates. Briefly, bacterial cells in mid log phase were cultured in Mueller-Hinton broth (MHB) and then diluted to 10^6 CFU/mL. Aliquots of 50 μL of bacterial solution were added to 50 μL of MHB medium containing 2-fold serially diluted peptides with concentrations ranging from 1.56 to 50 μM. Plates were incubated at 37 °C for 24 h, and MICs were defined as the lowest concentration of peptide that prevented detectable turbidity. Cultures without peptides and uninoculated MHB were employed as positive and negative controls, respectively. The bacterial growth inhibition was evaluated by measuring the absorbance at 600 nm using a microplate autoreader (SynersyMx, Biotek).

[2] = test system: Pseudomonas aeruginosa PA01; format: cell-based; conditions: 24 h
Experimental: as §1, §2

[3] = test system: Escherichia coli K12 parental type; format: cell-based; conditions: K12, 24 h
Experimental: as §1, §2

Bacillus subtilis = format: cell-based; conditions: 24 h
Experimental: as §1, §2

trypsin = test: in vitro; conditions: for remaining at 1 h, 100 μM: trypsin in phosphate buffered saline; for peptide remaining intact after trypsin incubation: trypsin 10 μg/mL, peptide 100 μM in PBS, 1 h, RP-HPLC C18 peak area relative to t0
Description: In order to overcome the proteolytic instability of peptide based drugs, the resistance of peptides to proteases is an essential prerequisite[33] because the peptides can be digested by the microbial or host protease and lose activity. Here, we tested the effect of the incorporation of an amide bond isostere on the resistance to trypsin, a serine protease known to cleave peptide bonds mainly at the C-terminal side of the amino acids lysine or arginine.
Figure 5 Resistance of peptides to trypsin digestion.
Proteolysis was measured by RP-HPLC using the following parameters, as reported.[52] Trypsin with a final concentration of 10 μg/mL was added to a solution of the peptides in phosphate buffered saline (100 μM), and the reaction was monitored over time by using reversed-phase HPLC (C18 reverse phase, Bio-Rad analytical column, 250 × 4 mm, 300 Å pore size, 7 μm particle size). The column was eluted in 40 min using a linear gradient of 10–90% acetonitrile in water containing 0.1% trifluoroacetic acid (v/v) at a flow rate of 0.6 mL/min.

Row | Molecule | remaining at 0.25 h, 200 μM (in vitro) | remaining at 0.5 h, 200 μM (in vitro) | remaining at 1 h, 200 μM (in vitro) | remaining at 2 h, 200 μM (in vitro) | remaining at 4 h, 200 μM (in vitro) | drop of cell viability [1] | MIC (Staphylococcus aureus) | MIC [2] | MIC [3] | MIC (Bacillus subtilis) | remaining at 1 h, 100 μM (trypsin) | peptide remaining intact after trypsin incubation (trypsin) | percentage intact peptide (in vitro; 30 min) | percentage intact peptide (in vitro; 120 min)
1 | CC[C@H](C)[C@H](NC(=O)CN)C(=O)NCC(=O)N[C@@H](CCCCN)C(=O)N[C@@H](Cc1ccccc1)C(=O)N[C@@H](CC(C)C)C(=O)N[C@@H](CCCCN)C(=O)NCCCC[C@H](N)C(=O)N[C@@H](C)C(=O)N[C@@H](CCCCN)C(=O)N[C@@H](CCCCN)C(=O)N[C@@H](Cc1ccccc1)C(=O)NCC(=O)NCCCC[C@H](N)C(=O)N[C@@H](C)C(=O)N[C@@H](Cc1ccccc1)C(=O)N[C@H](C(=O)NCCCC[C@H](N)C(=O)N[C@H](C(=O)N[C@@H](CC(C)C)C(=O)N[C@@H](CCCCN)C(=O)N[C@@H](CCCCN)C(N)=O)[C@@H](C)CC)C(C)C [MSIEP] (H-GIGKFLK[εLys]AKKFG[εLys]AFV[εLys]ILKK-NH2) | 99% | 98% | 76% | 75% | 75% | 20% | 6.25 to 12.5 µM | 6.25 to 12.5 µM | 12.5 µM (≈ 31 µg/mL) | 6.25 to 12.5 µM | > 66% | – | – | –
2 | GIGKFLKKAKKFGKAFVKILKK-NH2 [MSI-78] | 91% | 81% | 81% | 63% | 55% | – | 0.78 to 1.56 µM | – | 1.56 to 3.12 µM | 1.56 µM | – | no longer detected | – | –
3 | LKLLKKLLKKLLKLL-NH2 [Amp1L] | 71% | 65% | 62% | 61% | 39% | – | – | – | 3.12 to 6.25 µM | 6.25 to 12.5 µM | – | no longer detected | ~65% | ~61%
4 | CC(C)C[C@H](NC(=O)[C@H](CC(C)C)NC(=O)[C@@H](N)CCCCNC(=O)[C@H](CC(C)C)NC(=O)[C@H](CC(C)C)NC(=O)[C@H](CCCCN)NC(=O)[C@@H](N)CCCCNC(=O)[C@H](CC(C)C)NC(=O)[C@H](CC(C)C)NC(=O)[C@H](CCCCN)NC(=O)[C@@H](N)CCCCNC(=O)[C@H](CC(C)C)NC(=O)[C@H](CC(C)C)NC(=O)[C@H](CCCCN)NC(=O)[C@@H](N)CC(C)C)C(N)=O [Amp1EP] (I: H-LKLL[εLys]KLL / II: H-KKLL[εLys]LL-NH2; amide I:C-II:1) | 85% | 85% | 66% | 60% | 37% | 50% | – | 3.125 to 6.25 µM | 6.25 µM (≈ 11.3 µg/mL) | 12.5 µM (≈ 22.6 µg/mL) | 37% | – | ~85% | –
